Values of other authors as cited in patent US20090226374A1, “ANAPHYLATOXINS FOR DETECTING CLINICAL CONDITIONS” (Health Aide, Inc., priority 2003, published 2009).
Where two headings read alike, the source gives them in different places. Marks after values point to notes of the source that are not given here. Where no end group is shown, it is not given here. [ ]: non-standard residue; d: D form. The star is where a group is joined. Fmoc = O=C(OCC1c2ccccc2-c2ccccc21)*; Ahx = NCCCCCC(=O)O

How the values were obtained:
guinea pig ileum = conditions: for Relative molar activity (%): pentapeptide L-G-L-A-R (C3a 73-77) = 100; for Relative molar activity (%) / Relative Act. %: guinea pig ileum contraction; for Relative Act. %: natural human C3a (1-77) = 100
guinea pig platelet = guinea pig platelet aggregation
[1] = assay not given
[2] = natural factor C3a (1-77) = 100
[3] = natural C3a of each species; human C3a = 100

Substance: L-G-A-A-R [Peptide Code 12]
- Relative molar activity (%) (guinea pig ileum): <1.4%

Substance: R-R-R-Y-A-S-K-L-G-L-A-R (RRRYASKLGLAR) [Peptide B13]
- Potency relative to C3a (57-77), % (guinea pig platelet): 50%

Substance: Fmoc-G-G-Y-R-A-S-K-L-G-L-A-R (Fmoc-GGYRASKLGLAR) [Peptide D8]
- Potency relative to C3a (57-77), % ([1]; Table 1F): 227%

Substance: H-Ala-Ser-His-Leu-Gly-Leu-Ala-Arg-OH (H-ASHLGLAR-OH) [C3a-(70-77)]
- Relative molar activity (%) [2]: 2.0%

Substance: L-G-L-S-R [Peptide 21]
- Relative molar activity (%) (guinea pig ileum): 0.7%

Substance: I-I-G-G-Y-R-A-S-K-L-G-L-A-R (IIGGYRASKLGLAR) [Peptide B8]
- Potency relative to C3a (57-77), % (guinea pig platelet): 50%

Substance: C3a (1-77): Natural human C3a anaphylatoxin (1-77), the natural factor
- Potency % [3]: 100%
- Relative Act. % (guinea pig ileum): 100%
- Relative molar activity (%) [2]: 100%

Substance: Fmoc-A-R-A-A-L-G-L-A-R (Fmoc-ARAALGLAR) [Peptide D3]
- Potency relative to C3a (57-77), % ([1]; Table 1F): 37%

Substance: L-S-L-A-R [Peptide 9]
- Relative Act. % (guinea pig ileum): 2.0%
- Relative molar activity (%) (guinea pig ileum): 55%

Substance: Fmoc-Ahx-Y-S-H-K-G-M-L-L-G-R ({Fmoc-Ahx}-YSHKGMLLGR) [Peptide C9]
- Potency relative to C3a (57-77), % ([1]; Table 1E): 0.8%

Substance: L-G-L-E-R [Peptide 23]
- Relative molar activity (%) (guinea pig ileum): <2.6%

Substance: W-W-G-G-Y-R-A-S-A-L-G-L-A-R (WWGGYRASALGLAR) [Peptide D10]
- Potency relative to C3a (57-77), % ([1]; Table 1F): 181%

Substance: L-G-M-A-R [Peptide 15]
- Relative Act. % (guinea pig ileum): 0.25%
- Relative molar activity (%) (guinea pig ileum): 2.1%

Substance: W-W-G-G-Y-R-P-S-A-L-G-L-A-R (WWGGYRPSALGLAR) [Peptide D12]
- Potency relative to C3a (57-77), % ([1]; Table 1F): 252%

Substance: Y-G-L-A-R [Peptide 2]
- Relative Act. % (guinea pig ileum): 2.3%
- Relative molar activity (%) (guinea pig ileum): 160%

Substance: Y-A-S-K-L-G-L-A-R (YASKLGLAR) [Peptide C1]
- Potency relative to C3a (57-77), % ([1]; Table 1E): 3.4%

Substance: L-A-L-A-R [Peptide 8]
- Relative Act. % (guinea pig ileum): 0.59%
- Relative molar activity (%) (guinea pig ileum): 270%

Substance: W-W-G-G-Y-R-K-S-A-L-G-L-A-R (WWGGYRKSALGLAR) [Peptide D11]
- Potency relative to C3a (57-77), % ([1]; Table 1F): 259%

Substance: L-G-L-P-R [Peptide 19]
- Relative molar activity (%) (guinea pig ileum): 3.5%

Substance: Fmoc-R-A-A-R-L-G-L-A-R (Fmoc-RAARLGLAR) [Peptide D5]
- Potency relative to C3a (57-77), % ([1]; Table 1F): 61%

Substance: Y-S-H-K-G-M-L-L-G-R (YSHKGMLLGR) [Peptide C7]
- Potency relative to C3a (57-77), % ([1]; Table 1E): 0.5%

Substance: Fmoc-R-R-R-Y-A-S-K-L-G-L-A-R (Fmoc-RRRYASKLGLAR) [Peptide B17]
- Potency relative to C3a (57-77), % (guinea pig platelet): 261%

Substance: I-G-G-G-Y-R-K-S-A-L-G-L-A-R (IGGGYRKSALGLAR) [Peptide B11]
- Potency relative to C3a (57-77), % (guinea pig platelet): 16%

Substance: Ahx-Y-S-H-K-G-M-L-L-G-R ([Ahx]YSHKGMLLGR) [Peptide C8]
- Potency relative to C3a (57-77), % ([1]; Table 1E): 0.4%

Substance: H-Cys-Asn-Tyr-Ile-Thr-Glu-Leu-Arg-Arg-Gln-His-Ala-Arg-Ala-Ser-His-Leu-Gly-Leu-Ala-Arg-OH (H-CNYITELRRQHARASHLGLAR-OH) [C3a-(57-77)]
- Relative molar activity (%) [2]: >20* %

Substance: R-Y-A-S-K-L-G-L-A-R (RYASKLGLAR) [Peptide B2]
- Potency relative to C3a (57-77), % (guinea pig platelet): 7.0%

Substance: L-G-L-G-R [Peptide 22]
- Relative molar activity (%) (guinea pig ileum): <5.8%

Substance: L-V-L-A-R [Peptide 10]
- Relative Act. % (guinea pig ileum): 1.2%
- Relative molar activity (%) (guinea pig ileum): 10%

Substance: L-G-V-A-R [Peptide 17]
- Relative Act. % (guinea pig ileum): <0.005%
- Relative molar activity (%) (guinea pig ileum): <1.1%

Substance: L-G-L-Q-R [Peptide 20]
- Relative molar activity (%) (guinea pig ileum): 2.8%

Substance: Fmoc-Y-R-A-S-K-L-G-L-A-R (Fmoc-YRASKLGLAR) [Peptide B4]
- Potency relative to C3a (57-77), % (guinea pig platelet): 121%

Substance: Fmoc-R-A-A-A-L-G-L-A-R (Fmoc-RAAALGLAR) [Peptide D4]
- Potency relative to C3a (57-77), % ([1]; Table 1F): 79%

Substance: Fmoc-Ahx-Y-R-A-S-K-L-G-L-A-R ({Fmoc-Ahx}-YRASKLGLAR) [Peptide C5]
- Potency relative to C3a (57-77), % ([1]; Table 1E): 112%
- Potency relative to C3a (57-77), % ([1]; Table 1F): 112%

Substance: W-I-G-G-Y-R-A-S-K-L-G-L-A-R (WIGGYRASKLGLAR) [Peptide B7]
- Potency relative to C3a (57-77), % (guinea pig platelet): 118%

Substance: H-Arg-Gln-His-Ala-Arg-Ala-Ser-His-Leu-Gly-Leu-Ala-Arg-OH (H-RQHARASHLGLAR-OH) [C3a-(65-77)]
- Relative molar activity (%) [2]: 2.5%

Substance: L-G-I-A-R [Peptide 14]
- Relative Act. % (guinea pig ileum): 0.8%
- Relative molar activity (%) (guinea pig ileum): 10%

Substance: R-R-Y-A-S-K-L-G-L-A-R (RRYASKLGLAR) [Peptide B12]
- Potency relative to C3a (57-77), % (guinea pig platelet): 18%

Substance: W-Ahx-Y-A-S-K-L-G-L-A-R (W[Ahx]YASKLGLAR) [Peptide C4]
- Potency relative to C3a (57-77), % ([1]; Table 1E): 22%

Substance: L-G-L-A-R (LGLAR) [Peptide Code 5]
- Potency relative to C3a (57-77), % (guinea pig ileum; asterisk: based on guinea pig ileal assay): 0.2* %
- Relative Act. % (guinea pig ileum): 5.9%
- Relative molar activity (%) (guinea pig ileum): 100%

Substance: F-G-L-A-R [Peptide 3]
- Relative Act. % (guinea pig ileum): 1.1%
- Relative molar activity (%) (guinea pig ileum): 140%

Substance: H-Trp-Trp-Gly-Lys-Lys-Tyr-Arg-Ala-Ser-Lys-Leu-Gly-Leu-Ala-Arg-OH (H-WWGKKYRASKLGLAR-OH) [Peptide E7]
- Relative molar activity (%) [2]: >100** %

Substance: M-G-L-A-R [Peptide 6]
- Relative Act. % (guinea pig ileum): 0.005%
- Relative molar activity (%) (guinea pig ileum): 50%

Substance: Fmoc-I-R-R--R-Y-A-S-K-L-G-L-A-R (Fmoc-IRRRYASKLGLAR) [Peptide B18]
- Potency relative to C3a (57-77), % (guinea pig platelet): 50%

Substance: Fmoc-K-K-Y-R-A-S-K-L-G-L-A-R (Fmoc-KKYRASKLGLAR) [Peptide D7]
- Potency relative to C3a (57-77), % ([1]; Table 1F): 279%

Substance: Fmoc-W-W-R-R-R-Y-A-S-K-L-G-L-A-R (Fmoc-WWRRRYASKLGLAR) [Peptide B19]
- Potency relative to C3a (57-77), % (guinea pig platelet): 53%

Substance: L-E-L-A-R [Peptide 13]
- Relative Act. % (guinea pig ileum): 2.0%
- Relative molar activity (%) (guinea pig ileum): <2.4%

Substance: Ahx-Y-A-S-K-L-G-L-A-R ([Ahx]YASKLGLAR) [Peptide C2]
- Potency relative to C3a (57-77), % ([1]; Table 1E): 13%

Substance: W-W-G-G-Y-R-a-S-A-L-G-L-A-R (WWGGYR[dA]SALGLAR) [Peptide D13]
- Potency relative to C3a (57-77), % ([1]; Table 1F): 118%

Substance: Fmoc-A-A-R-A-L-G-L-A-R (Fmoc-AARALGLAR) [Peptide D2]
- Potency relative to C3a (57-77), % ([1]; Table 1F): 41%

Substance: W-G-G-Y-R-A-S-K-L-G-L-A-R (WGGYRASKLGLAR) [Peptide B5]
- Potency relative to C3a (57-77), % (guinea pig platelet): 99%

Substance: L-L-L-A-R [Peptide 11]
- Relative Act. % (guinea pig ileum): 0.023%
- Relative molar activity (%) (guinea pig ileum): 10%

Substance: W-R-R-R-Y-A-S-K-L-G-L-A-R (WRRRYASKLGLAR) [Peptide B14]
- Potency relative to C3a (57-77), % (guinea pig platelet): 66%

Substance: Fmoc-A-A-A-R-L-G-L-A-R (Fmoc-AAARLGLAR) [Peptide D1]
- Potency relative to C3a (57-77), % ([1]; Table 1F): 66%

Substance: L-Q-L-A-R [Peptide 12]
- Relative Act. % (guinea pig ileum): <0.003%
- Relative molar activity (%) (guinea pig ileum): <5.5%

Substance: G-I-G-G-Y-R-K-S-A-L-G-L-A-R (GIGGYRKSALGLAR) [Peptide B10]
- Potency relative to C3a (57-77), % (guinea pig platelet): 41%

Substance: W-Ahx-Y-S-H-K-G-M-L-L-G-R (W[Ahx]YSHKGMLLGR) [Peptide C10]
- Potency relative to C3a (57-77), % ([1]; Table 1E): 1.2%

Substance: I-I-G-G-Y-R-K-S-A-L-G-L-A-R (IIGGYRKSALGLAR) [Peptide B9]
- Potency relative to C3a (57-77), % (guinea pig platelet): 37%

Substance: FmocW-R-R-R-Y-A-S-K-L-G-L-A-R (Fmoc-WRRRYASKLGLAR) [Peptide B20]
- Potency relative to C3a (57-77), % (guinea pig platelet): 70%

Substance: A-G-L-A-R [Peptide 7]
- Relative Act. % (guinea pig ileum): <0.001%
- Relative molar activity (%) (guinea pig ileum): 20%

Substance: V-G-L-A-R [Peptide 5]
- Relative Act. % (guinea pig ileum): 0.2%
- Relative molar activity (%) (guinea pig ileum): 90%

Substance: Fmoc-Ahx-Y-A-S-K-L-G-L-A-R ({Fmoc-Ahx}-YASKLGLAR) [Peptide C3]
- Potency relative to C3a (57-77), % ([1]; Table 1E): 22%

Substance: I-R-R-R-Y-A-S-K-L-G-L-A-R (IRRRYASKLGLAR) [Peptide B15]
- Potency relative to C3a (57-77), % (guinea pig platelet): 99%

Substance: W-W-G-G-Y-R-A-S-K-L-G-L-A-R (WWGGYRASKLGLAR) [Peptide B6]
- Potency relative to C3a (57-77), % (guinea pig platelet): 259%

Substance: W-W-R-R-R-Y-A-S-K-L-G-L-A-R (WWRRRYASKLGLAR) [Peptide B16]
- Potency relative to C3a (57-77), % (guinea pig platelet): 296%

Substance: W-W-Ahx-Y-R-A-S-K-L-G-L-A-R (WW[Ahx]YRASKLGLAR) [Peptide C6]
- Potency relative to C3a (57-77), % ([1]; Table 1E): 603%

Substance: L-G-F-A-R [Peptide 16]
- Relative Act. % (guinea pig ileum): 1.0%
- Relative molar activity (%) (guinea pig ileum): <1.5%

Substance: Fmoc-R-R-Y-R-A-S-K-L-G-L-A-R (Fmoc-RRYRASKLGLAR) [Peptide D6]
- Potency relative to C3a (57-77), % ([1]; Table 1F): 176%

Substance: I-G-L-A-R [Peptide 4]
- Relative Act. % (guinea pig ileum): 0.8%
- Relative molar activity (%) (guinea pig ileum): 100%

Substance: Y-R-A-S-K-L-G-L-A-R (YRASKLGLAR) [Peptide B3]
- Potency relative to C3a (57-77), % (guinea pig platelet): 55%
